Literature values as cited in patent US6656923B1, “Uncomplexed cyclodextrin compositions for odor and wrinkle control” (The Procter & Gamble Company, priority 1997, dated 2003).

Structure (SMILES): ClC=CC[N+]12CN3CN(CN(C3)C1)C2.[Cl-] [Dowicil 200, 1-(3-Chlorallyl)-3,5,7-triaza-1-azoniaadamantane chloride]
- solubility in water: freely soluble in water
